According to PubChem BioAssay (NCI):
Several values for one entry are separate records, joined by “and”; a condition that tells them apart may be missing. Equal entries are not always repeated.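 Each compound was tested at five concentrations against cells in 96-well plates for 48 hours. GI50 = concentration required for 50% inhibition of growth. TGI: concentration producing complete growth inhibition.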

Tests used:
Assay in all cases: inhibition of tumour cell growth, NCI panel, 48 h
786-0 renal = tested on: 786-0 renal
A498 renal = tested on: A498 renal
A549 NSCLC = tested on: A549 NSCLC
ACHN renal = tested on: ACHN renal
BT-549 breast = tested on: BT-549 breast
CAKI-1 renal = tested on: CAKI-1 renal
CCRF-CEM leukemia = tested on: CCRF-CEM leukemia
COLO 205 colon = tested on: COLO 205 colon
DU-145 prostate = tested on: DU-145 prostate
EKVX NSCLC = tested on: EKVX NSCLC
HCC-2998 colon = tested on: HCC-2998 colon
HCT-116 colon = tested on: HCT-116 colon
HCT-15 colon = tested on: HCT-15 colon
HL-60(TB) leukemia = tested on: HL-60(TB) leukemia
HOP-62 NSCLC = tested on: HOP-62 NSCLC
HOP-92 NSCLC = tested on: HOP-92 NSCLC
HS 578T breast = tested on: HS 578T breast
HT29 colon = tested on: HT29 colon
IGROV1 ovarian = tested on: IGROV1 ovarian
K-562 leukemia = tested on: K-562 leukemia
KM12 colon = tested on: KM12 colon
LOX IMVI melanoma = tested on: LOX IMVI melanoma
M14 melanoma = tested on: M14 melanoma
MALME-3M melanoma = tested on: MALME-3M melanoma
MCF7 breast = tested on: MCF7 breast
MDA-MB-231 breast = tested on: MDA-MB-231 breast
MDA-MB-435 = tested on: MDA-MB-435
MOLT-4 leukemia = tested on: MOLT-4 leukemia
NCI-H226 lung = tested on: NCI-H226 lung
NCI-H23 lung = tested on: NCI-H23 lung
NCI-H460 lung = tested on: NCI-H460 lung
NCI-H522 lung = tested on: NCI-H522 lung
NCI/ADR-RES ovarian = tested on: NCI/ADR-RES ovarian
OVCAR-3 ovarian = tested on: OVCAR-3 ovarian
OVCAR-4 ovarian = tested on: OVCAR-4 ovarian
OVCAR-5 ovarian = tested on: OVCAR-5 ovarian
OVCAR-8 ovarian = tested on: OVCAR-8 ovarian
PC-3 prostate = tested on: PC-3 prostate
RPMI-8226 leukemia = tested on: RPMI-8226 leukemia
RXF 393 renal = tested on: RXF 393 renal
SF-268 CNS = tested on: SF-268 CNS
SF-295 CNS = tested on: SF-295 CNS
SF-539 CNS = tested on: SF-539 CNS
SK-MEL-2 melanoma = tested on: SK-MEL-2 melanoma
SK-MEL-28 melanoma = tested on: SK-MEL-28 melanoma
SK-MEL-5 melanoma = tested on: SK-MEL-5 melanoma
SK-OV-3 ovarian = tested on: SK-OV-3 ovarian
SN12C renal = tested on: SN12C renal
SNB-19 CNS = tested on: SNB-19 CNS
SNB-75 CNS = tested on: SNB-75 CNS
SR leukemia = tested on: SR leukemia
SW-620 colon = tested on: SW-620 colon
T-47D breast = tested on: T-47D breast
TK-10 renal = tested on: TK-10 renal
U251 CNS = tested on: U251 CNS
UACC-257 melanoma = tested on: UACC-257 melanoma
UACC-62 melanoma = tested on: UACC-62 melanoma
UO-31 renal = tested on: UO-31 renal

SMILES: C=CC(=O)Nc1cc(Nc2nccc(-c3cn(C)c4ccccc34)n2)c(OC)cc1N(C)CCN(C)C
- GI50 (786-0 renal): 1400 nM and 1380 nM
- TGI (786-0 renal): 2940 nM and 2900 nM
- GI50 (A498 renal): 1110 nM and 1480 nM
- TGI (A498 renal): 3250 nM and 4120 nM
- GI50 (A549 NSCLC): 1400 nM and 1290 nM
- TGI (A549 NSCLC): 4170 nM and 3870 nM
- GI50 (ACHN renal): 272 nM and 479 nM
- TGI (ACHN renal): 1950 nM and 1880 nM
- GI50 (BT-549 breast): 3520 nM and 2950 nM
- TGI (BT-549 breast): 12800 nM and > 10000 nM
- GI50 (CAKI-1 renal): 343 nM and 916 nM
- TGI (CAKI-1 renal): 6750 nM and 2490 nM
- GI50 (CCRF-CEM leukemia): 1610 nM and 2190 nM
- TGI (CCRF-CEM leukemia): 5840 nM and 5330 nM
- GI50 (COLO 205 colon): 1620 nM and 1430 nM
- TGI (COLO 205 colon): 3140 nM and 2990 nM
- GI50 (DU-145 prostate): 1760 nM and 1330 nM
- TGI (DU-145 prostate): 12000 nM and > 10000 nM
- GI50 (EKVX NSCLC): 751 nM and 200 nM
- TGI (EKVX NSCLC): 4080 nM and 3400 nM
- GI50 (HCC-2998 colon): 1560 nM and 1480 nM
- TGI (HCC-2998 colon): 3370 nM and 2980 nM
- GI50 (HCT-116 colon): 1720 nM and 1510 nM
- TGI (HCT-116 colon): 3300 nM and 2960 nM
- GI50 (HCT-15 colon): 1610 nM and 1420 nM
- TGI (HCT-15 colon): 3690 nM and 3270 nM
- GI50 (HL-60(TB) leukemia): 1470 nM and 1710 nM
- TGI (HL-60(TB) leukemia): 3330 nM and 3990 nM
- GI50 (HOP-62 NSCLC): 4070 nM and 3580 nM
- TGI (HOP-62 NSCLC): 18300 nM and > 10000 nM
- GI50 (HOP-92 NSCLC): 793 nM and 416 nM
- TGI (HOP-92 NSCLC): 8390 nM and 3490 nM
- GI50 (HS 578T breast): 3320 nM and 1890 nM
- TGI (HS 578T breast): 16000 nM and 9690 nM
- GI50 (HT29 colon): 1840 nM and 1510 nM
- TGI (HT29 colon): 4070 nM and 3240 nM
- GI50 (IGROV1 ovarian): 1140 nM and 407 nM
- TGI (IGROV1 ovarian): 7580 nM and 2680 nM
- GI50 (K-562 leukemia): 1730 nM and 349 nM
- TGI (K-562 leukemia): 5200 nM and 1730 nM
- GI50 (KM12 colon): 2310 nM and 2120 nM
- TGI (KM12 colon): 5490 nM and 5410 nM
- GI50 (LOX IMVI melanoma): 1750 nM and 1410 nM
- TGI (LOX IMVI melanoma): 3550 nM and 2860 nM
- GI50 (M14 melanoma): 1910 nM and 1730 nM
- TGI (M14 melanoma): 3600 nM and 3320 nM
- GI50 (MALME-3M melanoma): 2160 nM and 1710 nM
- TGI (MALME-3M melanoma): 3970 nM and 3280 nM
- GI50 (MCF7 breast): 1500 nM and 1480 nM
- TGI (MCF7 breast): 3470 nM and 3600 nM
- GI50 (MDA-MB-231 breast): 1590 nM and 1700 nM
- TGI (MDA-MB-231 breast): 3450 nM and 3600 nM
- GI50 (MDA-MB-435): 1620 nM and 1640 nM
- TGI (MDA-MB-435): 3030 nM and 3140 nM
- GI50 (MOLT-4 leukemia): 1770 nM and 1490 nM
- TGI (MOLT-4 leukemia): 5080 nM and 3660 nM
- GI50 (NCI-H226 lung): 3930 nM and 1390 nM
- TGI (NCI-H226 lung): 13100 nM and 3400 nM
- GI50 (NCI-H23 lung): 4760 nM and 3390 nM
- TGI (NCI-H23 lung): 17900 nM and > 10000 nM
- GI50 (NCI-H460 lung): 2180 nM and 2140 nM
- TGI (NCI-H460 lung): 5150 nM and 6090 nM
- GI50 (NCI-H522 lung): 169 nM and 65.7 nM
- TGI (NCI-H522 lung): 1980 nM and 1530 nM
- GI50 (NCI/ADR-RES ovarian): 1850 nM and 1450 nM
- TGI (NCI/ADR-RES ovarian): 9570 nM and 8180 nM
- GI50 (OVCAR-3 ovarian): 1400 nM and 1380 nM
- TGI (OVCAR-3 ovarian): 2930 nM and 3040 nM
- GI50 (OVCAR-4 ovarian): 2740 nM and 2420 nM
- TGI (OVCAR-4 ovarian): 20500 nM and > 10000 nM
- GI50 (OVCAR-5 ovarian): 1300 nM and 1290 nM
- TGI (OVCAR-5 ovarian): 2950 nM and 6550 nM
- GI50 (OVCAR-8 ovarian): 2040 nM and 1570 nM
- TGI (OVCAR-8 ovarian): 5890 nM and 4180 nM
- GI50 (PC-3 prostate): 2740 nM and 2110 nM
- TGI (PC-3 prostate): 12100 nM and 5550 nM
- GI50 (RPMI-8226 leukemia): 1950 nM and 1450 nM
- TGI (RPMI-8226 leukemia): 6650 nM and 4080 nM
- GI50 (RXF 393 renal): 1450 nM and 1340 nM
- TGI (RXF 393 renal): 3100 nM and 2980 nM
- GI50 (SF-268 CNS): 1950 nM and 1870 nM
- TGI (SF-268 CNS): 7020 nM and > 10000 nM
- GI50 (SF-295 CNS): 2760 nM and 2020 nM
- TGI (SF-295 CNS): 8310 nM and 4610 nM
- GI50 (SF-539 CNS): 1700 nM and 1630 nM
- TGI (SF-539 CNS): 3290 nM and 3160 nM
- GI50 (SK-MEL-2 melanoma): 2080 nM and 1940 nM
- TGI (SK-MEL-2 melanoma): 4040 nM and 3870 nM
- GI50 (SK-MEL-28 melanoma): 1630 nM and 1620 nM
- TGI (SK-MEL-28 melanoma): 3070 nM and 3120 nM
- GI50 (SK-MEL-5 melanoma): 1720 nM
- TGI (SK-MEL-5 melanoma): 3130 nM
- GI50 (SK-OV-3 ovarian): 50.1 nM and 31.1 nM
- TGI (SK-OV-3 ovarian): 18100 nM and > 10000 nM
- GI50 (SN12C renal): 2200 nM and 1200 nM
- TGI (SN12C renal): 8580 nM and 4360 nM
- GI50 (SNB-19 CNS): 2690 nM and 2060 nM
- TGI (SNB-19 CNS): 18400 nM and > 10000 nM
- GI50 (SNB-75 CNS): 3520 nM and 2570 nM
- TGI (SNB-75 CNS): 16400 nM and > 10000 nM
- GI50 (SR leukemia): 1290 nM and 1620 nM
- TGI (SR leukemia): 4940 nM and 3770 nM
- GI50 (SW-620 colon): 1830 nM
- TGI (SW-620 colon): 3760 nM and 4430 nM
- GI50 (T-47D breast): 815 nM and 363 nM
- TGI (T-47D breast): 11600 nM and > 10000 nM
- GI50 (TK-10 renal): 61.5 nM and 82.4 nM
- TGI (TK-10 renal): 15500 nM and 2020 nM
- GI50 (U251 CNS): 1630 nM and 1710 nM
- TGI (U251 CNS): 3260 nM and 3350 nM
- GI50 (UACC-257 melanoma): 1710 nM and 1800 nM
- TGI (UACC-257 melanoma): 3270 nM and 3370 nM
- GI50 (UACC-62 melanoma): 1850 nM and 1710 nM
- TGI (UACC-62 melanoma): 3610 nM and 3400 nM
- GI50 (UO-31 renal): 604 nM and 444 nM
- TGI (UO-31 renal): 4090 nM and 2080 nM
